# In patent publication US20060089395A1, “Nf-kb activation inhibitors” (priority 2002, published 2006):
# “Also recorded” adds a separate entry of the source. Where two headings read alike, the source gives them in different places.
# Legend:
# [1] = system: NF-κ B; assay: Inhibitory activity of NF-κ B activation, luciferase reporter assay in HepG2 under TNF-α stimulation; type: cell-based, human; details: HepG2, TNF-α (40 ng/ml), 4 hours
# How it was run: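 HepG2 cells transiently transfected with a luciferase reporter driven by five tandem NF-κB binding sites, then incubated 6–24 h. Stimulated with TNF-α (40 ng/ml) with or without test compound for 4 h. Intracellular luciferase read by chemiluminescence; inhibition expressed relative to activity without compound.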
# [2] = system: Vascular smooth muscle cells of normal coronary artery (Cryo CASMC); assay: Inhibitory test against proliferation of vascular smooth muscle cells of normal coronary artery under proliferation stimulation (MTS assay); type: cell-based; details: FGF and EGF stimulation, 72 hours
# Procedure: Vascular smooth muscle cells of normal coronary artery (Cryo CASMC) were cultured for 2 hours in the presence or absence of a test substance in DMEM medium containing 0.5% of FBS and insulin (5 u g/ml). Then, FGF and EGF were added for proliferation stimulation. The mixture was cultured for 72 hours and proliferation of the cells were measured by the MTS assay. The results aree shown in the following
# [3] = system: IL-6; assay: Inhibition of IL-6 production by TNFα stimulation in synovial fibroblasts derived from a rheumatoid patient (ELISA); type: cell-based, human; details: for IC50: synovial fibroblasts, read-out: Inhibition against Mediator Release IC50(nM) IL-6
# Procedure: (§1) Synovial fibroblasts (Human Synoviocyte (RA-Positive), Toyobo, T4040-05) were cultured for 3 days in a medium containing 10 ng/ml of TNFα and a test compound. IL-6 and IL-8 in the supernatant were measured by the ELISA method, and PGE2 (prostaglandin E2) was measured by the EIA method.
# [4] = system: IL-8; assay: Inhibition of IL-8 production by TNFα stimulation in synovial fibroblasts derived from a rheumatoid patient (ELISA); type: cell-based, human; details: for IC50: synovial fibroblasts, read-out: Inhibition against Mediator Release IC50(nM) IL-8; for inhibition at 1 µM: 72 h, 1000 nM, in parentheses, read-out: Inhibitory ratios (%) at 1000 nM, IL-8
# Procedure: as §1
# [5] = system: PGE2; assay: Inhibition of PGE2 production by TNFα stimulation in synovial fibroblasts derived from a rheumatoid patient (EIA); type: cell-based, human; details: for IC50: synovial fibroblasts, read-out: Inhibition against Mediator Release IC50(nM) PGE2
# Procedure: as §1
# [6] = Homo sapiens, Fibroblast, 72 h, 10 ng/ml TNFα, 3 days
# [7] = rheumatic patient-derived synovial fibroblasts under TNFα stimulation
# [8] = Homo sapiens, Fibroblast, comparison compounds, TNFα stimulation
structure (smiles),measurement,setting,value
O=C(Nc1cc(C(F)(F)F)cc(C(F)(F)F)c1)c1cc(C=Cc2ccccc2)ccc1O [Compound No. 19],Inhibitory Ratio of NF-κ B Activation(%) Drug Concentration 1 μg/mL,[1]; 1 μg/mL,95.5%
same,Inhibitory Ratio of NF-κ B Activation(%) Drug Concentration 10 μg/mL,[1]; 10 μg/mL,96.9%
same,Inhibitory Ratio of Proliferation(%) Compound Concentration 250 nM,[2],34.0%
same,Inhibitory Ratio of Proliferation(%) Compound Concentration 500 nM,[2],88.6%
O=C(Nc1cc(C(F)(F)F)cc(C(F)(F)F)c1)c1cc(-n2cccc2)ccc1O [Compound No. 27],Inhibitory Ratio of NF-κ B Activation(%) Drug Concentration 1 μg/mL,[1]; 1 μg/mL,93.8%
same,Inhibitory Ratio of NF-κ B Activation(%) Drug Concentration 10 μg/mL,[1]; 10 μg/mL,97.9%
same,IC50,"[3]; 10 ng/ml TNFα, 3 days",355 nM
same,IC50,"[4]; 10 ng/ml TNFα, 3 days",527 nM
same,IC50,"[5]; 10 ng/ml TNFα, 3 days",532 nM
O=C(Nc1cc(C(F)(F)F)cc(C(F)(F)F)c1)c1cc(-c2ccsc2)ccc1O [Compound No. 29],Inhibitory Ratio of NF-κ B Activation(%) Drug Concentration 1 μg/mL,[1]; 1 μg/mL,81.7%
same,Inhibitory Ratio of NF-κ B Activation(%) Drug Concentration 10 μg/mL,[1]; 10 μg/mL,92.9%
same,Inhibitory Ratio of Proliferation(%) Compound Concentration 250 nM,[2],52.2%
same,Inhibitory Ratio of Proliferation(%) Compound Concentration 500 nM,[2],90.4%
O=C(Nc1cc(C(F)(F)F)cc(C(F)(F)F)c1)c1c(O)cccc1F [Compound No. 63],Inhibitory Ratio of NF-κ B Activation(%) Drug Concentration 1 μg/mL,[1]; 1 μg/mL,85.4%
same,Inhibitory Ratio of NF-κ B Activation(%) Drug Concentration 10 μg/mL,[1]; 10 μg/mL,85.0%
same,IC50,"[3]; 10 ng/ml TNFα, 3 days",513 nM
same,IC50,"[4]; 10 ng/ml TNFα, 3 days",786 nM
same,IC50,"[5]; 10 ng/ml TNFα, 3 days",439 nM
O=C(Nc1cc(C(F)(F)F)cc(C(F)(F)F)c1)c1ccc2ccccc2c1O [Compound No. 71],Inhibitory Ratio of NF-κ B Activation(%) Drug Concentration 1 μg/mL,[1]; 1 μg/mL,89.6%
same,Inhibitory Ratio of NF-κ B Activation(%) Drug Concentration 10 μg/mL,[1]; 10 μg/mL,95.0%
same,Inhibitory Ratio of Proliferation(%) Compound Concentration 250 nM,[2],81.6%
same,Inhibitory Ratio of Proliferation(%) Compound Concentration 500 nM,[2],92.4%
O=C(Nc1cc(C(F)(F)F)cc(C(F)(F)F)c1)c1c(O)ccc2ccccc12 [Compound No. 73],Inhibitory Ratio of NF-κ B Activation(%) Drug Concentration 1 μg/mL,[1]; 1 μg/mL,93.1%
same,Inhibitory Ratio of NF-κ B Activation(%) Drug Concentration 10 μg/mL,[1]; 10 μg/mL,97.9%
same,IC50,"[3]; 10 ng/ml TNFα, 3 days",337 nM
same,IC50,"[4]; 10 ng/ml TNFα, 3 days",670 nM
same,IC50,"[5]; 10 ng/ml TNFα, 3 days",662 nM
"COc1ccc(C(C)(C)C)cc1NC(=O)c1cc(Cl)ccc1O [Compound No. 135, 5-chloro-N-{5-[(1,1-dimethyl)ethyl]-2-methoxyphenyl}-2-hydroxybenzamide]",inhibition at 1 µg/mL,"[1]; Homo sapiens, 1 μg/mL, read-out: Inhibitory Ratio of NF-κ B Activation(%) Drug Concentration 1 μg/mL",86.2%
same,inhibition at 10 µg/mL,"[1]; Homo sapiens, 10 μg/mL, read-out: Inhibitory Ratio of NF-κ B Activation(%) Drug Concentration 10 μg/mL",99.2%
same,IC50,[3]; [6],61 nM
same,inhibition of the production of IL-6 (in words),[3]; [7],potently inhibited; also recorded: strongly inhibited
same,inhibition of the production of IL-8 (in words),[4]; [7],potently inhibited; also recorded: strongly inhibited
same,IC50,[5]; [6],41 nM
same,inhibition of the production of PGE2 (in words),[5]; [7],potently inhibited; also recorded: strongly inhibited
COc1ccc(Oc2ccc(C(F)(F)F)cc2NC(=O)c2cc(Cl)ccc2O)cc1 [Compound No. 253],Inhibitory Ratio of NF-κ B Activation(%) Drug Concentration 1 μg/mL,[1]; 1 μg/mL,96.3%
same,Inhibitory Ratio of NF-κ B Activation(%) Drug Concentration 10 μg/mL,[1]; 10 μg/mL,99.5%
same,Inhibitory Ratio of Proliferation(%) Compound Concentration 250 nM,[2],84.1%
same,Inhibitory Ratio of Proliferation(%) Compound Concentration 500 nM,[2],91%
O=C(Nc1ccc(F)cc1F)c1cc(I)ccc1O [reference compound],IC50,[3]; [8],85 nM
same,inhibition at 1 µM,"[4]; Homo sapiens, Fibroblast",-23%
same,IC50,[4]; [8],> 1000 nM
same,IC50,[5]; [8],730 nM
CC(=O)c1ccc(NC(=O)c2cc(I)ccc2O)cc1 [reference compound],IC50,[3]; [8],82 nM
same,inhibition at 1 µM,"[4]; Homo sapiens, Fibroblast",-5.9%
same,IC50,[4]; [8],> 1000 nM
same,"Inhibitory ratios (%) at 1000 nM, PGE2","[5]; 1000 nM, in parentheses",−3.9%
same,IC50,[5]; [8],> 1000 nM
O=C(Nc1ccc(-c2ccccc2)cc1)c1cc(C(F)(F)F)ccc1O [reference compound],IC50,[3]; [8],140 nM
same,inhibition at 1 µM,"[4]; Homo sapiens, Fibroblast",-67%
same,IC50,[4]; [8],> 1000 nM
same,IC50,[5]; [8],292 nM
